Measurements from publication PMC7690782, “Liver-Targeting Class I Selective Histone Deacetylase Inhibitors Potently Suppress Hepatocellular Tumor Growth as Standalone Agents” (Cancers, 2020).

How the values were obtained:
Assay in all cases: Fluor de Lys fluorescence deacetylase inhibition assay
Type in all cases: biochemical
Conditions in all cases: read-out: 1 (IC50)
HDAC2 = molecular target: T1, HDAC2 (Homo sapiens, UniProt Q92769)
T1 construct: enzyme of BPS Bioscience contract assay
Source text: Fluor de Lys fluorescence deacetylase inhibition assay on HDAC2

HDAC4 = molecular target: T2, HDAC4 (Homo sapiens, UniProt P56524)
T2 construct: enzyme of BPS Bioscience contract assay
Source text: Fluor de Lys fluorescence deacetylase inhibition assay on HDAC4

HDAC6 = molecular target: T3, HDAC6 (Homo sapiens, UniProt Q9UBN7)
T3 construct: enzyme of BPS Bioscience contract assay
T3 sequence (Q9UBN7 1-1215): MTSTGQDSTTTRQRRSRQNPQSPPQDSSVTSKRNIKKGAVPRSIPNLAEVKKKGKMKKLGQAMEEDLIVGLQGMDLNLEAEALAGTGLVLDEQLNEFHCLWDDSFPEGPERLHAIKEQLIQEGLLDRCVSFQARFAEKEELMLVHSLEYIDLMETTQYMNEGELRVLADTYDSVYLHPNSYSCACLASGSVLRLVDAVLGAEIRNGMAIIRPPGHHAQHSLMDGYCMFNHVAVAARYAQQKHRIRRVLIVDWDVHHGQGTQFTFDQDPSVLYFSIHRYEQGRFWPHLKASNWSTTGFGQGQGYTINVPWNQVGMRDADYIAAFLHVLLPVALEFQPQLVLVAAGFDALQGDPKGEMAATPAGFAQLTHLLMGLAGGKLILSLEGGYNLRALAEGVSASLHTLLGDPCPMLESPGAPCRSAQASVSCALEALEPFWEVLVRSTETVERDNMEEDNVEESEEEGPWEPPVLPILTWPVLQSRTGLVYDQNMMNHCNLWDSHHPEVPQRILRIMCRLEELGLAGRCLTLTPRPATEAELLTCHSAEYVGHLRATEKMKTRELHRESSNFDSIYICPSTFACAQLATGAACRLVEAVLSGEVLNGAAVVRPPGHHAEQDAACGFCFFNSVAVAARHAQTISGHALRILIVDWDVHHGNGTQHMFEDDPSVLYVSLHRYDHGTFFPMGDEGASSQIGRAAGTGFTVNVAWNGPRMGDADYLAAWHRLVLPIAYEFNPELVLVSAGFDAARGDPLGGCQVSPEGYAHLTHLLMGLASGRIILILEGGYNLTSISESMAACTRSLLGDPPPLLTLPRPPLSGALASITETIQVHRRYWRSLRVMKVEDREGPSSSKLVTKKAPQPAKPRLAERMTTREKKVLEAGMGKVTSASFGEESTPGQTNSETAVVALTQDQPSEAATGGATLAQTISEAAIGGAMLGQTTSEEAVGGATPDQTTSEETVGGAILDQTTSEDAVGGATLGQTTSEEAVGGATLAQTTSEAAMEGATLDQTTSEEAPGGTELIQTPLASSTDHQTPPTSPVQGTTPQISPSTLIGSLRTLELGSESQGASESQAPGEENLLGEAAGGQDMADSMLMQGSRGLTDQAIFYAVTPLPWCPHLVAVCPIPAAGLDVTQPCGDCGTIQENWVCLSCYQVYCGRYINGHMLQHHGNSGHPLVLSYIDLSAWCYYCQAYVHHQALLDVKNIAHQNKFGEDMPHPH
Source text: Fluor de Lys fluorescence deacetylase inhibition assay on HDAC6

HDAC8 = molecular target: T4, HDAC8 (Homo sapiens, UniProt Q9BY41)
T4 construct: enzyme of BPS Bioscience contract assay
T4 sequence (Q9BY41 1-377): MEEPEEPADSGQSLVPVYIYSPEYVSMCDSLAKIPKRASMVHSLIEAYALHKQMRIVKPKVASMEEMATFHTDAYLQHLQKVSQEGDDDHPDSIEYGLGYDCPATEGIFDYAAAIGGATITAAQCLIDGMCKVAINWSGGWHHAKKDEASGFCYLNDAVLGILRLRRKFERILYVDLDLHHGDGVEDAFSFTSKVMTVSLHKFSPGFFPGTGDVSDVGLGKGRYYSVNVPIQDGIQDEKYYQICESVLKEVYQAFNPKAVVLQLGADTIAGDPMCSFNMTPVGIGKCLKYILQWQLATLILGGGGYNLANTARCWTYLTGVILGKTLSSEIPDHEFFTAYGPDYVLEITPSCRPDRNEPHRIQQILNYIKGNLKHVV
Source text: Fluor de Lys fluorescence deacetylase inhibition assay on HDAC8

HDAC1 = molecular target: T5, HDAC1 (Homo sapiens, UniProt Q13547)
T5 construct: enzyme of BPS Bioscience contract assay
Source text: Fluor de Lys fluorescence deacetylase inhibition assay on HDAC1

HDAC9 = molecular target: T6, HDAC9 (Homo sapiens, UniProt Q9UKV0)
T6 construct: enzyme of BPS Bioscience contract assay
Source text: Fluor de Lys fluorescence deacetylase inhibition assay on HDAC9

HDAC10 = molecular target: T7, HDAC10 (Homo sapiens, UniProt Q969S8)
T7 construct: enzyme of BPS Bioscience contract assay
T7 sequence (Q969S8 1-669): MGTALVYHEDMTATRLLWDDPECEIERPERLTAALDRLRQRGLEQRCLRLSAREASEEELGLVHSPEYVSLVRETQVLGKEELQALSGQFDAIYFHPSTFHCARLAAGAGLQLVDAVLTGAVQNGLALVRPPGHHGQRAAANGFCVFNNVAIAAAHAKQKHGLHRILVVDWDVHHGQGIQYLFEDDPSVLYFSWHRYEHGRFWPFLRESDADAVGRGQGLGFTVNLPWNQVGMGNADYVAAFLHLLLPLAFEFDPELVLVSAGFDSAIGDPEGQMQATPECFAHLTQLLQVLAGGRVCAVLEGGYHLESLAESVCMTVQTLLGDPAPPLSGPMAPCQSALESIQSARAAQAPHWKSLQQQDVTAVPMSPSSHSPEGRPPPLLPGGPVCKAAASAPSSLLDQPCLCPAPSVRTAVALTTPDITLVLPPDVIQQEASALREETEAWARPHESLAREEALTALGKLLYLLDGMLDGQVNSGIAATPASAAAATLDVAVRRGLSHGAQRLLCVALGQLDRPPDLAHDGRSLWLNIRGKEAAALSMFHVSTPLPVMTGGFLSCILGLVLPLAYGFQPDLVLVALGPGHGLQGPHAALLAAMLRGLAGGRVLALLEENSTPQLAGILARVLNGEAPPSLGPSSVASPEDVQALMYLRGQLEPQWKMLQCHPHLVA
Source text: Fluor de Lys fluorescence deacetylase inhibition assay on HDAC10

HDAC7 = molecular target: T8, HDAC7 (Homo sapiens, UniProt Q8WUI4)
T8 construct: enzyme of BPS Bioscience contract assay
T8 sequence (Q8WUI4 518-952 limits assumed): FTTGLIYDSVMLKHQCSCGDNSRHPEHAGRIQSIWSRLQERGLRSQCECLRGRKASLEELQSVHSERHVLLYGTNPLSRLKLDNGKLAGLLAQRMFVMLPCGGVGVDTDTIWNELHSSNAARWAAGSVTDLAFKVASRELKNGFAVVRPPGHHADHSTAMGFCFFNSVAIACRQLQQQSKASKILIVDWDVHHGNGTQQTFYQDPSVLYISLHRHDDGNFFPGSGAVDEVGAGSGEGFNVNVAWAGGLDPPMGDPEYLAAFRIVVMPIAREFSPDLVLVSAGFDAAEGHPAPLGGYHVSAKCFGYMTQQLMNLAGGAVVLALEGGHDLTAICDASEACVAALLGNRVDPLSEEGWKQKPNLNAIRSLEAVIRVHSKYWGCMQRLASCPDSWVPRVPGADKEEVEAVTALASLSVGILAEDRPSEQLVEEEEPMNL
Source text: Fluor de Lys fluorescence deacetylase inhibition assay on HDAC7

HDAC5 = molecular target: T9, HDAC5 (Homo sapiens, UniProt Q9UQL6)
T9 construct: enzyme of BPS Bioscience contract assay
Source text: Fluor de Lys fluorescence deacetylase inhibition assay on HDAC5

HDAC11 = molecular target: T10, HDAC11 (Homo sapiens, UniProt Q96DB2)
T10 construct: enzyme of BPS Bioscience contract assay
T10 sequence (Q96DB2 1-347): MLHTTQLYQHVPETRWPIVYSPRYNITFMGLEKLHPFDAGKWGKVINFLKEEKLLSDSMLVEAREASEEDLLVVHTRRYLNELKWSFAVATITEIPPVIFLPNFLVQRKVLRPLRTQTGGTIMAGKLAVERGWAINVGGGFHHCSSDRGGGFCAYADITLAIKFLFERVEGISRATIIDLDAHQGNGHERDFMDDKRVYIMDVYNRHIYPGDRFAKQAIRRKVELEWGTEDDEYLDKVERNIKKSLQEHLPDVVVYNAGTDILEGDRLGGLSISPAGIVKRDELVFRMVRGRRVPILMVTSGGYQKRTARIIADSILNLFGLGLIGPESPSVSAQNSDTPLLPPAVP
Source text: Fluor de Lys fluorescence deacetylase inhibition assay on HDAC11

T2 sequence (P56524 627-1084 limits assumed): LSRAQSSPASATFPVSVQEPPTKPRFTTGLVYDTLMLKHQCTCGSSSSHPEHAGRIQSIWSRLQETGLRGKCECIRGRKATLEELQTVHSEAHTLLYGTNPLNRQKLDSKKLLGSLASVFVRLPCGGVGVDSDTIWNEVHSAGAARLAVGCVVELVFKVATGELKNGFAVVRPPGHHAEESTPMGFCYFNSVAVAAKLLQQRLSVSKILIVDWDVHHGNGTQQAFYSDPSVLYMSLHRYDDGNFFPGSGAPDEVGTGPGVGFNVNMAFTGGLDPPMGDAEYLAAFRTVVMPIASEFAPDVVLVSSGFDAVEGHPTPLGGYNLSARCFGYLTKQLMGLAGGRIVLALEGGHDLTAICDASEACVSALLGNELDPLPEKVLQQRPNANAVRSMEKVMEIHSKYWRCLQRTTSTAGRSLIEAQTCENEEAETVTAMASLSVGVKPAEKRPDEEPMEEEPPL
T1 sequence (Q92769 whole entry): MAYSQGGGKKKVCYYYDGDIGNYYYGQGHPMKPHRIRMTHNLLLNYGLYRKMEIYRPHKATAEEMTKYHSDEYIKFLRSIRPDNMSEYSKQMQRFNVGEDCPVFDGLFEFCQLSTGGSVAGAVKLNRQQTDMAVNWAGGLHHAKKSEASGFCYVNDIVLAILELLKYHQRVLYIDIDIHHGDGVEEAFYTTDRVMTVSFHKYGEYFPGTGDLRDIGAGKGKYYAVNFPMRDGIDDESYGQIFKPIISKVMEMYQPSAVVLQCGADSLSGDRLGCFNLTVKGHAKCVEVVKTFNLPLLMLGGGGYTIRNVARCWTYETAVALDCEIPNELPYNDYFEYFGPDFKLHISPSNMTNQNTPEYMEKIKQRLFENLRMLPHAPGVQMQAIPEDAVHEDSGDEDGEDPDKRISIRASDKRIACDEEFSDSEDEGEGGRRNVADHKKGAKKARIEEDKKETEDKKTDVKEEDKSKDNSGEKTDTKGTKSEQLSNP
T6 sequence (Q9UKV0 whole entry): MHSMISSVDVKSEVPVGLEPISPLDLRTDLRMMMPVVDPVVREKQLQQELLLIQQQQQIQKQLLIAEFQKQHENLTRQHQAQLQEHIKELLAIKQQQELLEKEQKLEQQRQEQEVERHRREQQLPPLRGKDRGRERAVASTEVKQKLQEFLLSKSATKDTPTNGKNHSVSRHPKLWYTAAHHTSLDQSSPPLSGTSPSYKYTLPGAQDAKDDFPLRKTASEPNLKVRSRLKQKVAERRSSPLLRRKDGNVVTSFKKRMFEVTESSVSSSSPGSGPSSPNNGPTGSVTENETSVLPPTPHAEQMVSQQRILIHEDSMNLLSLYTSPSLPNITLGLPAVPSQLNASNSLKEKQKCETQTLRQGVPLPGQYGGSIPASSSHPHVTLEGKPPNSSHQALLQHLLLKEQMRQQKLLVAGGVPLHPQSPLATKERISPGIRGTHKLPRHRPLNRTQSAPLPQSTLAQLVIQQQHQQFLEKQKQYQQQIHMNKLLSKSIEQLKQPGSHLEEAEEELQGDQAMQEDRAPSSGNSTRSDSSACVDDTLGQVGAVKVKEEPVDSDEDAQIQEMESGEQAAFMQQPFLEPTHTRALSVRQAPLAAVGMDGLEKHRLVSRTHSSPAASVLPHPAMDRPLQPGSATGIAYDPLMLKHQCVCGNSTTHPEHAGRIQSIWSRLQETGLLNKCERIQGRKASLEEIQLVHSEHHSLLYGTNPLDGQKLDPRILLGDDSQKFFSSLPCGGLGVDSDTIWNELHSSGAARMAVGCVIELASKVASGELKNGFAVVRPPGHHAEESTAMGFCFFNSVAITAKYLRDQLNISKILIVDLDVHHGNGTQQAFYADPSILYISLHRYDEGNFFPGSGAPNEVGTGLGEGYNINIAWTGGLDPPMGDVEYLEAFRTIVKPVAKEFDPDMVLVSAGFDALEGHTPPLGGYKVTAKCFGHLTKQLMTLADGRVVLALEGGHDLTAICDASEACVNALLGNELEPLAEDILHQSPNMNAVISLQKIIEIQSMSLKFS
T9 sequence (Q9UQL6 whole entry): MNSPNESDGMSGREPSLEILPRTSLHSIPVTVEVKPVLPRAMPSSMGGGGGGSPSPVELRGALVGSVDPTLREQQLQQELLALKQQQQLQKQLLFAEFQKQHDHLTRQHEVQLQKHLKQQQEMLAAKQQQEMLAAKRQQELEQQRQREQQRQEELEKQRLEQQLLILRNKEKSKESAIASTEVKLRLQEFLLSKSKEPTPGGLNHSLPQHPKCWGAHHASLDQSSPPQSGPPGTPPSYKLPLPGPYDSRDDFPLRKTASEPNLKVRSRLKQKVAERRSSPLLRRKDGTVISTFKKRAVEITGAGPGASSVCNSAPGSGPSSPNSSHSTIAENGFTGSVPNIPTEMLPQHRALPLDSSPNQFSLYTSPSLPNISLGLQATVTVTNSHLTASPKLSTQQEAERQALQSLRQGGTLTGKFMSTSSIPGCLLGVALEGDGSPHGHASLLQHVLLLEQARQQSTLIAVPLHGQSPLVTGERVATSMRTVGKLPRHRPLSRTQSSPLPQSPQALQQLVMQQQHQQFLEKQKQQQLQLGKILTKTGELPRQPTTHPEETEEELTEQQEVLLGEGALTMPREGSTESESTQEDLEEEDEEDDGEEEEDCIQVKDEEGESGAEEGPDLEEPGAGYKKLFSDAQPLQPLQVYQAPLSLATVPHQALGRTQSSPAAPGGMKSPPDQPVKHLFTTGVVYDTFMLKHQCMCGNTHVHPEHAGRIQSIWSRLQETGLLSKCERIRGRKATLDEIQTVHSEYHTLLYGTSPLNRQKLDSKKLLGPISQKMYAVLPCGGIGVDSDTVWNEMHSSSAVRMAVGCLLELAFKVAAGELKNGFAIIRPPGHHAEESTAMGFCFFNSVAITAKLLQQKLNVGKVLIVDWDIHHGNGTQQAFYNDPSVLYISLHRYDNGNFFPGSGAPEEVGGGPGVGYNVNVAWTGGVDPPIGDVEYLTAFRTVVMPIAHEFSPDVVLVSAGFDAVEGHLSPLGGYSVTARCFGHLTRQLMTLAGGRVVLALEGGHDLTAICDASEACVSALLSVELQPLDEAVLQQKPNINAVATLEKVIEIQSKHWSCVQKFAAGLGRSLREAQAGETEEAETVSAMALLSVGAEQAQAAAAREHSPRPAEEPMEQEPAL
T5 sequence (Q13547 whole entry): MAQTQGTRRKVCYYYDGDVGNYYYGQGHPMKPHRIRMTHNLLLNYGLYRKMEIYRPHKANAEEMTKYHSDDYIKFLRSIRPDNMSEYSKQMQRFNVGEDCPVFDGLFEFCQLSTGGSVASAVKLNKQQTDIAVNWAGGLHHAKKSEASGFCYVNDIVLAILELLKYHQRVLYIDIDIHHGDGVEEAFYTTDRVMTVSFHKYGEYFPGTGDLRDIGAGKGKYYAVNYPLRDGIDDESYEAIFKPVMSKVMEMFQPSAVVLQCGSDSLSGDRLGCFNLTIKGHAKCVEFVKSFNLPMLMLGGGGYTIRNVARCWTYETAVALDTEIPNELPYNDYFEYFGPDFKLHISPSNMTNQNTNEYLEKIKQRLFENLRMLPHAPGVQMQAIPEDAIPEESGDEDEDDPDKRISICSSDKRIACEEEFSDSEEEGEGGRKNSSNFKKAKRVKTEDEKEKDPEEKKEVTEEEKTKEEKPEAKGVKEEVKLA

For CC[C@H]1OC(=O)[C@H](C)[C@@H](O[C@H]2C[C@@](C)(OC)[C@@H](O)[C@H](C)O2)[C@H](C)[C@@H](O[C@@H]2O[C@H](C)C[C@H](N(C)Cc3ccc(-c4cn(CCCCCCC(=O)NO)nn4)cc3)[C@H]2O)[C@](C)(O)C[C@@H](C)CN(C)[C@H](C)[C@@H](O)[C@]1(C)O [compound 1], which IC50 (HDAC2) is on record?
Its IC50 is 8.1 nM.

What about the IC50 (HDAC4) of the same compound?
The IC50 was 1900 nM.

And the IC50 (HDAC6)?
Its IC50 is 1.7 nM.

And the IC50 (HDAC8)?
Its IC50 is 839 nM.

And the IC50 (HDAC1)?
Its IC50 is 2.7 nM.

What about the IC50 (HDAC9) of the same compound?
The IC50 was 6910 nM.

What about the IC50 (HDAC10) of the same compound?
Its IC50 is 4.5 nM.

What about the IC50 (HDAC7) of the same compound?
Its IC50 is 2620 nM.

And the IC50 (HDAC5)?
Its IC50 is 1770 nM.

What about the IC50 (HDAC11) of the same compound?
The IC50 was 7360 nM.
